Patent publication US20230339854A1, “Negative Allosteric Modulation of GluN3-Containing N-Methyl-D-Aspartate Receptors” (Emory University, priority 2020, published 2023)
“Also recorded” adds a separate entry of the source. Where two headings read alike, the source gives them in different places.

Key:
Format in all cases: cell-based
[1] = molecular target: T1, human GluN1^FA,TL/GluN3A receptors (Homo sapiens, UniProt Q8TCU5); assay: Two-electrode voltage-clamp recordings of GluN1^FA,TL/GluN3A receptors in Xenopus oocytes; details: for % Inhibition GluN1^FATL/GluN3A: fitted maximum at saturating test compound
T1 construct: Human GluN3A (NP_597702.2) and rat GluN3B (NP_579842.2) were synthesized and subcloned into SP6 plasmids; expressed in transfected cells; host or cells: Xenopus laevis oocytes, cRNA injection (GluN1:GluN3 1:3)
T1 sequence (Q8TCU5 24-1115, other chains not shown): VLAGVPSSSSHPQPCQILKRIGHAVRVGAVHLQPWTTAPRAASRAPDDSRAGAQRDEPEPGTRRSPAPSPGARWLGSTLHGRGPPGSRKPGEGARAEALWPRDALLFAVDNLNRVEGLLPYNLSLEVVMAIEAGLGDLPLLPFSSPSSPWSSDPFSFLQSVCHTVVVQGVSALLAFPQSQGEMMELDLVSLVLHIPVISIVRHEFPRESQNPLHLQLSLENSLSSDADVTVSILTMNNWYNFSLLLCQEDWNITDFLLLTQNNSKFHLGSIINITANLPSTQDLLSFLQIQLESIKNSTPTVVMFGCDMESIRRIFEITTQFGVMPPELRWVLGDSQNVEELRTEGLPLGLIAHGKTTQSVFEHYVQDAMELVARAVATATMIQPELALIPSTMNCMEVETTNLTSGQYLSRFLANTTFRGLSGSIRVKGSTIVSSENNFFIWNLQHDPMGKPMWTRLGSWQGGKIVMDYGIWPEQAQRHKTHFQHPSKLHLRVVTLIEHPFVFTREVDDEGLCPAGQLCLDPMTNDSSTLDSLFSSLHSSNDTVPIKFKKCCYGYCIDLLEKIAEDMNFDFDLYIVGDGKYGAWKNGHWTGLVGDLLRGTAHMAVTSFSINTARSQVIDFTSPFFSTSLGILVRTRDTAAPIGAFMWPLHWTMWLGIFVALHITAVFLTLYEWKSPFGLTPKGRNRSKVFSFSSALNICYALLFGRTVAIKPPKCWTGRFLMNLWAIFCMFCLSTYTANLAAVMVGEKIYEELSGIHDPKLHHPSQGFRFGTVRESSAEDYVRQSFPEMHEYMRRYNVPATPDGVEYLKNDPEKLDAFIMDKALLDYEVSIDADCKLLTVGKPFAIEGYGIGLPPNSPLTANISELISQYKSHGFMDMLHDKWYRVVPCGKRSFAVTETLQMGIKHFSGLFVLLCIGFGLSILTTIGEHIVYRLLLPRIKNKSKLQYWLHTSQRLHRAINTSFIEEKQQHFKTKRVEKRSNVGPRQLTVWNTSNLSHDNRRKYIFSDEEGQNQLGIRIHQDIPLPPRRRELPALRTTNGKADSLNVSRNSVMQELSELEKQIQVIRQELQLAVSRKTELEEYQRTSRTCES
How it was run: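 Human GluN1 with human GluN3A cRNA (1:3) in oocytes, recorded 2-5 days post-injection at 23° C, holding −40 mV, in Ba2+-containing recording solution pH 7.4. Compounds screened at 10 or 30 μM; those inhibiting >20% given concentration-response fits for IC50, Hill slope and residual inhibition.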

[2] = molecular target: T2, rat GluN1-4a^FA,TL/GluN3B receptors (Rattus norvegicus, UniProt Q8VHN2); assay: Two-electrode voltage-clamp recordings of GluN1-4a^FA,TL/GluN3B receptors (Xenopus oocytes)
T2 construct: Human GluN3A (NP_597702.2) and rat GluN3B (NP_579842.2) were synthesized and subcloned into SP6 plasmids; expressed in transfected cells; host or cells: Xenopus laevis oocytes, cRNA injection
T2 sequence (Q8VHN2 25-1002, other chains not shown): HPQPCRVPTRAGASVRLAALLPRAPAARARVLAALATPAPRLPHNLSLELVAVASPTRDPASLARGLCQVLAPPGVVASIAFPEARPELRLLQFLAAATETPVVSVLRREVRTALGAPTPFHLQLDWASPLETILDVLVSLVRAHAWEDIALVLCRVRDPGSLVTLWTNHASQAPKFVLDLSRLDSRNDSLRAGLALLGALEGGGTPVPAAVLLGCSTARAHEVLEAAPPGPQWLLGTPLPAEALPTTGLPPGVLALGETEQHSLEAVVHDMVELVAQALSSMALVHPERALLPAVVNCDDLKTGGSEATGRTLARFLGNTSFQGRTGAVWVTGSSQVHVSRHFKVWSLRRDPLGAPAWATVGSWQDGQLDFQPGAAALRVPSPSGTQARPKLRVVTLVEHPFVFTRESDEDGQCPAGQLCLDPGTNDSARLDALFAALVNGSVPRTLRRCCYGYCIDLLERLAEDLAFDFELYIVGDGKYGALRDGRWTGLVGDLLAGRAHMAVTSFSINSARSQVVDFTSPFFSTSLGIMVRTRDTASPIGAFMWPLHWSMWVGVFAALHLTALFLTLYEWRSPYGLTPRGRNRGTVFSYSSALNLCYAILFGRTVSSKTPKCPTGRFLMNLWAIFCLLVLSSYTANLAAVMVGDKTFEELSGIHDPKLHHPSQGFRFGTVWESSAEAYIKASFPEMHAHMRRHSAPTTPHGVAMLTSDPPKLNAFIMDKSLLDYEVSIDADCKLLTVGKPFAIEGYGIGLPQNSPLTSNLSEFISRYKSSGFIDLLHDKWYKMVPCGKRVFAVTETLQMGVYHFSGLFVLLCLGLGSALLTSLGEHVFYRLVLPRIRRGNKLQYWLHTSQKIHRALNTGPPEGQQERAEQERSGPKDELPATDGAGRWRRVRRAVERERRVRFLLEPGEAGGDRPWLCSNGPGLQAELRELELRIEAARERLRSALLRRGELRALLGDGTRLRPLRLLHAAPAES
Excerpt: cDNA encoding human wild-type (WT) GluN1-1a (GenBank accession numbers NP_015566, hereafter GluN1) and rat GluN1-1a (NP_058706.1) were synthesized and subcloned into pGEMHE plasmid; some experiments used the rat splice variant GluN1-4a (NP_001257531.1). Human GluN3A (NP_597702.2) and rat GluN3B (NP_579842.2) were synthesized and subcloned into SP6 plasmids. For most experiments, human GluN1 was co-expressed with human GluN3A, except for mutagenesis experiments where rat GluN1 was co-expressed with human GluN3A. Rat GluN1-4a was always expressed with rat GluN3B.
Defolliculated Xenopus laevis oocytes (stage V-VI) were obtained from Ecocyte BioScience (Austin, Texas), or prepared from commercially available Xenopus ovaries (Xenopus 1, Dexter, MI) as previously described (Hansen, et al., Mol. Pharmacol., 2013). A Drummond Nanoject II (Broomall, PA) was used to inject oocytes with cRNAs encoding GluN1 and GluN3 at a 1:3 ratio in RNase-free water. The cRNA was diluted as needed to give responses with amplitudes ranging between 200-2000 nA (0.2-10 ng total cRNA). […] Recording electrodes were filled with 0.3-3.0 M KCl, and current responses were recorded at a holding potential of −40 mV. […]

GluN1/GluN3A channels = GluN1/GluN3A channels (Mus musculus, UniProt A2AIR5); assay: Nonstationary variance analysis of neuronal glycine-evoked current responses; details: 30 μM; VHOLD −60 mV
Chain of GluN1/GluN3A channels (A2AIR5 27-1135, other chains not shown): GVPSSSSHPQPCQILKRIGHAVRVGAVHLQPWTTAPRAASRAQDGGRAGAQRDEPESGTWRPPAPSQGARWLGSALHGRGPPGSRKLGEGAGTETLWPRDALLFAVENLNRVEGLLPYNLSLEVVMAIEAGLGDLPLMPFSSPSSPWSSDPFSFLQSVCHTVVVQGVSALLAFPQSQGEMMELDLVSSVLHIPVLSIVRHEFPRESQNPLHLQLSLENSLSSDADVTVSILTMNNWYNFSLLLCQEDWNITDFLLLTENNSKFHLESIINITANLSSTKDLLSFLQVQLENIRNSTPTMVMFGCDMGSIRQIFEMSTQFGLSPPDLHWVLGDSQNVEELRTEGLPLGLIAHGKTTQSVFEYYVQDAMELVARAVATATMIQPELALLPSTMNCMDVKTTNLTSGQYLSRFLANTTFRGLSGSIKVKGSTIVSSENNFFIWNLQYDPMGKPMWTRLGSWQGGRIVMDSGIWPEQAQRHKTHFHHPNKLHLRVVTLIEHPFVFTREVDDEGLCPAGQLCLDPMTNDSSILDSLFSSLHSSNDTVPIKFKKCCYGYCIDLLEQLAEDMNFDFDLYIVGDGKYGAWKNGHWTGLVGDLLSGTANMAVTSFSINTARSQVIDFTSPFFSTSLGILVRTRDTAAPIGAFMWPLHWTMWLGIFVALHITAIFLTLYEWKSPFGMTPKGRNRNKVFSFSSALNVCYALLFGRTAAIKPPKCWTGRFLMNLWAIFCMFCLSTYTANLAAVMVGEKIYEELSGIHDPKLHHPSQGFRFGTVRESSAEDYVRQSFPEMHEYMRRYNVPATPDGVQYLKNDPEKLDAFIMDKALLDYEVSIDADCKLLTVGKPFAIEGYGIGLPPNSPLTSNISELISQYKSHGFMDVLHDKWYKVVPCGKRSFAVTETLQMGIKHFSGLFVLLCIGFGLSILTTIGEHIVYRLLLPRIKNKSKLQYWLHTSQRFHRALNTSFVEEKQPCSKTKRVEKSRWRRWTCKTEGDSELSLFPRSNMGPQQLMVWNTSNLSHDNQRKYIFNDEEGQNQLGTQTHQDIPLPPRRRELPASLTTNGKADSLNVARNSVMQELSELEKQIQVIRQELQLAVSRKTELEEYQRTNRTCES
Method: Nonstationary variance analysis (Perszyk, et al., Nat. Chem. Biol., 2020, 16(2), 188-196) was conducted on the deactivation phase of the neuronal glycine-evoked current responses bathed in vehicle (control) or 30 μM EU1180-438 (VHOLD: −60 mV). […] The current was divided into 50 equally spaced segments, and the mean current amplitude of each segment was determined. The current was high pass filtered with a cutoff of 1 Hz, and the current variance was determined for 50 segments. The plot of variance vs. current for each response was fitted by the equation:
Variance=iI−I^2/N • where I is the current amplitude of macroscopic response, i is the weighted mean unitary current, and N is the channel numbers. Virtually identical results were found if the current-variance relationship for all 10 responses for each cell were averaged and then fitted by the foregoing equation. Chord conductance y was determined assuming 0 mV for the reversal potential.
Some allosteric modulators with molecular determinants in the pre-M1 can reduce single channel conductance for glutamate receptors (Perszyk, et al., Nat. Chem. Biol., 2020, 16(2), 188-196; Yuan, et al., ACS Med. Chem. Lett., 2019, 10 (3), 237-242). […]

[3] = molecular target: native GluN1/GluN3A receptors (Mus musculus, UniProt A2AIR5); assay: Whole-cell patch-clamp of glycine-activated responses in hippocampal CA1 pyramidal cells, acute brain slices; details: 30 μM; 1 μM CGP-78608; 10 mM glycine puffs
Chain of native GluN1/GluN3A receptors (A2AIR5 27-1135, other chains not shown): as above

COc1ccc(OCC(c2ccc(OC)cc2)N2Cc3ccccc3C2=O)cc1 (racemic) [EU1180-438, 2-(2-(4-methoxyphenoxy)-1-(4-methoxyphenyl)ethyl)isoindolin-1-one]
effect of increasing glycine concentration on inhibition [1]: not altered by increasing glycine concentration
voltage dependence of inhibition (current-voltage relationship) ([1]; 4 μM compound): no effect of holding voltage on EU1180-438 inhibition
Slope ([1]; concentration-response curve, 1000 μM glycine): 1.24
% Inhibition GluN1^FATL/GluN3A ([1]; pH 6.8): 72%^a, (n = 7)
% Inhibition GluN1^FATL/GluN3A ([1]; pH 7.4): 82%, (n = 18)
maximal inhibition at saturating concentrations ([1]; pH 6.8): 72%
IC50 ([1]; pH 6.8, holding potential −40 mV, read-out: EC50, (95% CI) GluN1^FATL/GluN3A): 4.2 µM
IC50 ([1]; pH 6.8, read-out: IC50): 4.2 µM
inhibition at a saturating concentration ([1]; pH 7.4): 82%
IC50 ([1]; pH 7.4, holding potential −40 mV, read-out: EC50, (95% CI) GluN1^FATL/GluN3A): 3.5 µM
remaining activity at 10 µM ([1]; read-out: response in the presence of compound, % of control): 29 ± 4.2%
minimum ([1]; residual response at saturating concentration, 1000 μM glycine): 18%
IC50 ([1]; responses activated by 1000 μM glycine, pH 7.4, read-out: IC50): 3.5 µM
IC50 [2]: 5.2 µM
inhibition at saturating concentrations [2]: 82%
average chord conductance of GluN1/GluN3A channels (GluN1/GluN3A channels): 6.3±0.90 pS
effect on glycine-activated responses from native GluN1/GluN3A receptors [3]: strong inhibition; also recorded: inhibited significantly
